Data taken from patent US11980594B2, “Composition and method for treating a drug-resistant cancer” (NOVELWISE PHARMACEUTICAL CORPORATION, priority 2021, dated 2024).
“And” between values parts separate entries of the source, which are not always exact repeats. Identical values can stand only once.

What was measured:
HT29 cells [1] = assay: Clonogenic (colony formation) assay, HT29; format: cell-based; conditions: Homo sapiens, HT-29, 336 h, 14 days, read-out: IC50 values of TMZ, clonogenic assay
Protocol: (§1) For the anchorage-dependent growth assay, 1000 cells were resuspended in the medium and seeded in 6-well plates. […] After 14 days, the media were removed and the cells were washed and fixed with 4% paraformaldehyde for 30 min, and stained with 0.1% crystal violet for 20 min at 25° C. The intensity of crystal violet was quantified by the absorbance of 570 nm after dissolving the stained cells with dimethyl sulfoxide (DMSO). The results are expressed as the average colony±SE from three independent experiments.

RKO cells [2] = assay: Clonogenic (colony formation) assay, RKO; format: cell-based; conditions: Homo sapiens, 336 h, 14 days, read-out: IC50 values of TMZ, clonogenic assay
Protocol: as §1

MGMT = assay: Western blot of MGMT in GBM-R cells; format: cell-based, human; conditions: A172-R and U87MG-R cells; 50 μM TMZ without or with 5 and 10 μM BMX; 48 hrs; FIG. 5B, 5C
Protocol: (§2) The cells were collected and lysed in RIPA lysis buffer (EMD Millipore Billerica, Mass., USA, 10×RIPA buffer) containing a protease inhibitor. Protein concentration was determined using a protein assay kit (Bio-Rad Laboratories, Hercules, Calif., USA). The SDS loading buffer was mixed with the protein samples. Proteins (20 μg/lane) were separated using 8%-12% SDS-PAGE and transferred to a PVDF membrane, which was blocked with 5% bovine serum albumin at room temperature for 1 hr in tris-buffered saline (TBS)-Tween 20 (0.5%; TBS-T), incubated with primary antibodies overnight at […], and then incubated with horseradish peroxidase (HRP)-conjugated secondary antibodies at room temperature for 1 hr. After washing thoroughly with TBS-T, the HRP signals were detected with a chemical HRP substrate. Signal of each target protein was visualized by incubation with an enhanced chemiluminescent reagent and exposure to X-ray film.

[3] = tested on: GBM-R cells (U87MG-R and A172-R); assay: GBM-R cell viability time course (FIG. 2F); format: cell-based, human; conditions: BMX 10 μM alone, FIG. 2F (24, 48, and 72 hrs)
Protocol: (A) Chemical structure of BMX. (B) Cell viability of GBM and GBM-R cell lines after treatment with 0.5, 10, 15, 30, or 50 μM BMX. (C) Cell viability of GBM and GBM-R cell lines after treatment with 0.25, 50, 100, 200, 400, or 800 μM TMZ. (D) GBM and GBM-R cell viability after treatment with 10 μM BMX with or without TMZ at various concentrations (0.25, 50, 100, 200, 400, or 800 μM) for 24 hrs. (E) GBM and GBM-R cell viability after treatment with 50 μM TMZ with or without BMX at various concentrations (0.5, 10, 15, 30, or 50 μM) for 24 hrs. (F) GBM-R cell viability after treatment with 50 μM TMZ with or without 10 μM BMX for 24, 48, and 72 hrs. (G) Colony formation assay of GBM and GBM-R cell lines with BMX (0, 5, or 10 μM) with or without TMZ (50 μM) for 14 days. Data are represented as means±SEM from three experiments. *p<0.05 vs. control (A172 and U87MG); #p<0.05 vs. (A172-R and U87MG-R).
We plated 3000 GBM cells per well in 96-well plates and allowed them to adhere overnight. To validate cell line responsiveness to BMX and TMZ monotherapy, the cells were treated with different doses of BMX or TMZ for 24, 48, and 72 hrs. […] Following treatment, the absorption value was measured using a CCK8 kit (Targetmol, Shanghai, China) at the indicated time points. […]

HT29 cells [4] = assay: Annexin V/PI flow cytometric analysis of apoptosis, HT29; format: cell-based, human; conditions: BMX, 48 hrs
Protocol: (§3) Apoptosis induction in different doses of BMX (0-10 μM) in the presence or absence of TMZ (50 μM) was assayed by the detection of membrane externalization of phosphatidylserine with the with the CF®488A Annexin V and PI Apoptosis Kit (Fremont, Calif., USA) following the manufacturer's instructions. All samples were then immediately analyzed by flow cytometry.

RKO cells [5] = assay: Annexin V/PI flow cytometric analysis of apoptosis, RKO; format: cell-based, human; conditions: BMX, 48 hrs
Protocol: as §3

c-Myc and cyclin D1 = assay: Western blot of c-Myc and cyclin D1 in GBM-R cells; format: cell-based, human; conditions: 5 or 10 μM BMX with or without 50 μM TMZ, 48 hrs, FIG. 3B
Protocol: as §2

[6] = statement from literature [22]; cited from earlier work
HDAC8 = target: T1, HDAC8 (Homo sapiens, UniProt Q9BY41); conditions: statement from literature [22]; cited from earlier work
T1 sequence (Q9BY41 1-377): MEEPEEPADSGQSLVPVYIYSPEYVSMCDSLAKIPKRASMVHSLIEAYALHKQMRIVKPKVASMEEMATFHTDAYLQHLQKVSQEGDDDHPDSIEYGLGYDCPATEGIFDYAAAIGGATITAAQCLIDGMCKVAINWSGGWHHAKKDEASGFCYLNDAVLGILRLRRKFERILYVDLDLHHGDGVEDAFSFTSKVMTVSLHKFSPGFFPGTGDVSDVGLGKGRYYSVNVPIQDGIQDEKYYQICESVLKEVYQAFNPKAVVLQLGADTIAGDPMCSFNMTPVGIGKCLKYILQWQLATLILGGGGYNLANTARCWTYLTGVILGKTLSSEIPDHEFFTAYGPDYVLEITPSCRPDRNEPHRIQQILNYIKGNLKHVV

| IC50 (HT29 cells [1]) [µM] | IC50 (RKO cells [2]) [µM] | Compound | MGMT expression (MGMT) | cell viability (cytotoxic effect, fold) [3] | early apoptotic cells (HT29 cells [4]) | early apoptotic cells (RKO cells [5]) [%] | levels of proliferative markers c-Myc and cyclin D1 (c-Myc and cyclin D1) | toxicity [6] | HDAC isoform selectivity (HDAC8) |
| --- | --- | --- | --- | --- | --- | --- | --- | --- | --- |
| 359 ± 50.4 | 244 ± 29.4 | Cn1nnc2c(C(N)=O)ncn2c1=O [TMZ, Temozolomide, reference compound] | moderately suppress MGMT expression | – | – | – | – | – | – |
| – | – | COc1ccc(COc2c(/C=C/C(=O)NO)ccc(OC)c2CC=C(C)C)cc1 [BMX, (E)-2-(4-Methoxybenzyloxy)-3-prenyl-4-methoxy-N-hydroxycinamide] | moderately decrease MGMT levels | 0.88 × and 0.77 × and 0.63 × | up to 23.78% | ≤ 59.18 | could decrease their levels | lowest toxicity | isoform-selective HDAC8 inhibitor |
